Data published in patent US20220041578A1, “ISOINDOLINE COMPOUND, AND PREPARATION METHOD, PHARMACEUTICAL COMPOSITION, AND APPLICATION OF ISOINDOLINE COMPOUND” (Shanghai Institute of Meteria Medica, Chinese Academy of …, priority 2018, published 2022).
pIC50: −log10 of the molar value. Where two headings read alike, the source gives them in different places.

Tests used:
Format in all cases: cell-based
[1] = system: MV-4-11 cells; assay: Effect of the compound on proliferation of MV-4-11 cells (MTS); details: Homo sapiens
Experimental: MV-4-11 cells were cultured with IMDM plus 10% fetal bovine serum and collected. The cell concentration was diluted according to the action time of 7 days, and 180 ul of cell suspension was added to each well of a 96-well cell plate to make the cell count to be 2000. 20 ul of DMSO with a final concentration of 0.2% was added to the control cell wells. The compound was diluted 5-fold with the 10 mM stock solution, and 20 ul was also added to the compound cell wells (the final concentration of DMSO was 0.2%). The cells were placed in a 37° C., 5% CO2 incubator and incubated for 7 days. After preparing the reaction solution according to the MTS kit (Promega, G5430), 20 μL was added to each well, incubated in a 37° C., 5% CO2 incubator for 3-4 h. Read the 490 nm absorbance value with a microtiter plate, and used the 690 nm absorbance value as the background value and OD490-OD690 as the final initial data. The formula for calculating the inhibition rate of the compound was: inhibition rate=(OD DMSO-ODcompound)/(ODDMSO-Oblank)×100%. The compound's proliferation inhibition IC50 was fitted by Graph Pad Prism 5.0. The experiment was repeated three times, and three parallel experiments were used to calculate the average and standard deviation each time. The cell viability test results were shown in Table 3: A means cell viability IC50<1 μM, B means cell viability 1 μM≤IC50≤20 μM, C means cell viability IC50>20 μM.

[2] = system: MM.1S cells; assay: Effect of the compound on the proliferation of MM.1S cells (MTS); details: Homo sapiens, MM1.S, 168 h, 7 days, read-out: Cell inhibitory activity (IC50)
Outline: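 In 1640 medium + 10% FBS, 20,000 cells per well were treated with 5-fold compound dilutions at 0.2% DMSO for 7 days at 37° C., 5% CO2. MTS was read after 3–4 h as OD490−OD690, inhibition was calculated against DMSO and blank wells, and IC50 was fitted; three independent experiments were run.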

[3] = system: Colorectal cancer cells HCT-116; assay: Proliferation of other tumor cells, HCT-116 (WST-8); details: Homo sapiens, 96 h, HCT-116 cells, 4 days, read-out: Inhibitory activity on proliferation, HCT-116 (IC50)
Experimental: (§1) The human triple negative breast cancer cells MDA-MB-468 and MDA-MB-231 used in this experiment were purchased from the Shanghai Cell Bank, in which L-15 medium added with 10% fetal bovine serum (FBS) and 1% double antibody was used. At 37° C., MDA-MB-468 and MDA-MB-231 cells were cultured in an incubator without CO2. Colorectal cancer cells HCT-116 were cultured in McCOY's 5A medium with 1% double antibody and 10% fetal bovine serum (FBS); prostate cancer cells DU145 were cultured in MEM medium with 1% double antibody and 10% fetal bovine serum (FBS); prostate cancer cells PC-3 were cultured in F-12 K medium with 1% double antibody and 10% fetal bovine serum (FBS); grew at 37° C., 5% CO2.
(§2) In the cell activity test experiment, 90 μL cell suspension with appropriate concentration was added to a 96-well cell culture plate according to the cell growth, each compound to be tested was gradient diluted with the corresponding medium, 10 μL diluted compound was added to 90 μL cells, and then incubated at 37° C. for 4 days. Cell proliferation was analyzed by WST-8, which could be reduced by lactate dehydrogenase in the cells to a yellow formazan. 10 μL of WST-8 reagent (DOJINDO) was added to the cells and reacted for more than 1 hour at 37° C., DMSO-treated cells were used as […]. The absorption value of 490 nm was read by enzyme-labeled plate, and the absorption value of 690 nm was taken as the background value, and OD490-OD690 was taken as the final original data, and the data was processed by GraphPad Prism6 software. The formula for calculating the inhibition rate of the compound was: inhibition rate=(ODDMSO−ODcompound)/(ODDMSO−Oblank)×100%. The compound's proliferation inhibition IC50 was fitted by Graph Pad Prism 5.0. The experiment was repeated three times, and three parallel experiments were used to calculate the average and standard deviation each time. The cell viability test results were shown in Table 4: A means cell viability IC50<1 μM, B means cell viability 1 μM≤IC50≤20 μM, C means cell viability IC50>20 μM, NT means not tested.

[4] = system: TNF-α; assay: TNF-α activity inhibition experiment in LPS-stimulated PBMC (ELISA); details: Homo sapiens, compound 10 nM, LPS 1 ug/ml, 72 hours, read-out: Inhibition rate of TNF-a (%)
Experimental: All operations of this experiment were carried out according to the conventional experimental process of this kind of experiment at present. Peripheral blood from healthy volunteers was collected by routine standard procedure and cultured in 1640 medium (+10% FBS) to obtain PBMC. After recovery, PBMC was centrifuged and resuspended in serum-free medium. After counting, adjusted the density to be 6.25×10^5/ml; then inoculated 160 ul to a 96-well plate, 1×10^5/well; 20 ul 10× compound and DMSO were added, and incubated for 1 hour in an incubator; then 20 ul 10 XLPS was added resulting the final concentration of 1 ug/ml and incubated in an incubator for 72 hours. Centrifuged the cell plate at 1500 rpm and aspirated 50 ul supernatant according to the ELISA operation. After operating according to the kit, a microplate reader was used to read at 450 nm. The concentration of compound was 10 nM, and DMSO was added as control group. Materials used in this experiment: 96 well plate (Corning, #3599), ELISA kit (Thermo), LPS (Sigma, USA).

[5] = system: prostate cancer cells PC-3; assay: Proliferation of other tumor cells, PC-3 (WST-8); details: Homo sapiens, 96 h, PC-3 cells, 4 days, read-out: Inhibitory activity on proliferation, PC-3 (IC50)
Experimental: as §1, §2

- pIC50 ([1]; MV4-11, 168 h, 7 days, MTS, read-out: Inhibitory activity (IC50)): < 4.70
- pIC50 ([1]; MV4-11, read-out: cytostatic activity (IC50) on MV-4-11 cells): < 4.70
- pIC50 [2]: > 6.82
- pIC50 [3]: < 4.70
- pIC50 [5]: < 4.70
Structure (SMILES): Nc1cccc2c1CN(C1CCC(=O)NC1=O)C2=O (stereo not drawn) [Lenalidomide, lenalidomide, reference compound]
- inhibition at 0.01 µM [4]: < 50%
